Here are results for one sequence from patent publication US9511120B2, “Use of the angiotensin-(1-9) peptide or derivatives thereof, use of vectors overexpressing the ACE2 enzyme that produces angiotensin-(1-9) for preparing medicaments useful for preventing, reverting, inhibiting and/or reducing hypertension and/or inducing vasodilation” (PONTIFICA UNIVERSIDAD CATÓLICA DE CHILE, priority 2012, dated 2016).

Where no end group is shown, it is not given here.

The test system of test [1] is collagen I. The experiment in a line: Goldblatt model: collagen I protein levels in the aortic wall. In kind it is in vivo, rat. The conditions noted are these: GB rats. The source says:
(§1) Lewis normotensive rats (weight 150±10 g), which were separated randomly into the experimental hypertension model group or GB (Ocaranza et al. J. Hypertens. 20:413-20, 2002) or control group (S) were used. The latter corresponded to pseudo-operated animals. All animals were maintained under controlled conditions of light and darkness and had free access to food and water. Four weeks after surgery and at a blood pressure above 140 mmHg, GB rats were randomized for the chronic administration of angiotensin-(1-9) through an osmotic pump (602 ng kg^−1min^−1) via the jugular vein during two weeks. The animals were euthanized after 6 weeks post-surgery.
(§2) For the determination of collagen I and TGFβ-1, 30 μg and 50 μg of total proteins were used, respectively, diluted in SDS reducing buffer (50 mM tris-HCl, pH 7.4, NP-40 10%, NaCl 1M, Na deoxycholate 5%, EDTA 10 mg/mL, SDS 10%, aprotinin 1 mg/mL, leupeptin 0.1 mg/mL, PMSF 10 mM), they were then separated by SDS-PAGE gel electrophoresis 7%, and transferred to nitrocellulose membranes of […] to 300 mA for 1 h. The transfer of proteins was monitored by Ponceau red staining. […]

For test [2], the system named is hypertensive myocardial fibrosis by pressure overload. The experiment in a line: Goldblatt model: volume fraction of total collagen in the ventricle (picrosirius red). In kind it is in vivo, rat. The conditions noted are these: GB rats.
Description: as §1
Sections of 5 μm of ventricle, previously included in Bouin, which were treated with picrosirius red, were used. The tissue was examined under light microscopy, images were captured with a Nikon DS Fi1 camera and projected on a monitor. The Matlab program was used to measure the interstitial collagen content according to the procedure described by Ocaranza et al. (J. Cardiovasc. Pharmacol. 40:246-54, 2002).

Test [3] relates to collagen I. The experiment in a line: Angiotensin II infusion model: collagen I protein levels in the aortic wall by Western blot. In kind it is in vivo, rat. The conditions noted are these: angiotensin II-hypertensive rats. The method, then:
(§3) Rats were subjected to the model of angiotensin II infusion (Grobe et al.: Am. J. Physiol. 292: H736-42, 2007). The animals were separated randomly into the following experimental groups: controls (Sham or pseudo-operated), infused with angiotensin II (300 ng/kg min), infused with angiotensin II and angiotensin-(1-9) (300 ng/kg min and 602 ng/kg min, respectively), and then infused with angiotensin II, angiotensin-(1-9) and the angiotensin-(1-7) receptor antagonist, A779 (300 ng/kg min, 602 ng/kg min, and 100 ng/kg min, respectively). In all cases the pumps operated at a flow of 0.5 μL/h and were implanted in the right jugular vein through a catheter fitted in an intrascapular subcutaneous pocket under anesthesia with ketamine HCl/xylazine (35 and 7 mg/kg i.p., respectively), for a period of 14 days.
as §2

Test [4] deals with cardiomyocyte hypertrophy induced by Ang II in vivo. The experiment in a line: Angiotensin II infusion model: cardiomyocyte hypertrophy (area and perimeter). Details: species or system rat. On the procedure:
as §3
(§4) The middle portion of the left ventricle (LV) was dehydrated at room temperature for 24 h in Bouin and then embedded in paraffin. Sections of 10-15 μm thick were taken and stained with hematoxylin-eosin, to be examined later in a light microscope in order to observe their general morphological characteristics. Cardiomyocyte size was determined according to Nakamura et al. (Circulation, 98:794-9, 1998). Briefly, images of the cells were captured using a Nikon DS Fi1 camera and projected on a monitor using a software program. The cardiomyocyte area and perimeter were measured and recorded, using the Nis-Element program (Ocaranza et al. J. Hypertens., 28:1054-64, 2010). All measurements were performed by a blinded observer, and at least 80 images of cells per animal, which were randomly selected, were analyzed.

For test [5], the system named is cardiomyocyte hypertrophy of hypertensive rats by pressure overload. The experiment in a line: Goldblatt model: cardiomyocyte area and perimeter. In kind it is in vivo, rat. The conditions noted are these: GB rats.
Description: as §1
as §4, with “Briefly, images of the cells were captured using a Nikon DS Fi1 camera and projected on a monitor using a software program.” left out

For another test, the system named is ED-1. The experiment in a line: Goldblatt model: ED-1 levels of the aortic wall (immunohistochemistry). In kind it is in vivo, rat. The conditions noted are these: GB rats.
Description: as §1
Immunostaining was performed using the streptavidin-biotin-peroxidase method with the inflammation marker ED-1. This is a glycoprotein expressed primarily in the lysosomal membrane of active macrophages (Leskovar et al. J. Exp. Biol. 203:1783-1795, 2000).
In order to block endogenous peroxidase, the samples were deparaffinized, rehydrated and treated with 10% H2O2 in methanol for 1 h. Then, the tissues were incubated with monoclonal antibody anti ED-1 (clone MCA341R, Serotec) diluted 1/1000 in 1% BSA prepared in PBS-0.05% Tween 20 overnight at 4° C. in a humid chamber. The sections were washed three times with 1×PBS-0.05% Tween 20, pH 7.4 for 5 min and incubated with the biotinylated secondary antibody for 30 min at room temperature. […]

The subject of another test is TGFβ-1. The experiment in a line: Goldblatt model: TGFβ-1 protein levels in the aortic wall. In kind it is in vivo, rat. The conditions noted are these: GB rats.
Description: as §1, §2

Test [6] has as its system thoracic aortas of hypertensive rats by angiotensin II infusion. Description: Angiotensin II infusion model: aortic hypertrophy by morphometry. In kind it is in vivo, rat. The conditions noted are these: thoracic aorta, 14 days infusion. On the procedure:
as §3
Aortic hypertrophy was determined by morphometry. Sections of the descending aorta of 5 μm thick, which were previously fixed in Bouin (1.3% picric acid, 9.5% formaldehyde and 4.8% acetic acid) for 24 hours, embedded in paraffin and stained with hematoxylin-eosin, were used, to be examined later in a light microscope as described by Igase et al. (Am. J. Physiol. 289:H1013-9, 2005). Briefly, images of the aortas were captured by a video camera (Nikon) fixed to a microscope (Nikon), and projected on a monitor; using the software Nis-Element. Lumen areas (LA) and total areas (TA) were calculated and recorded. The tunica media area (TMA) was obtained from the difference between the TA and LA of the aorta. The tunica media thickness (TMT) was defined as the region delimited by the external elastic lamina (EEL) and internal elastic lamina (IEL).

Where [7] appears, read: co-administered with angiotensin II.

As for DRVYIHPFH, the “reduction of the increase of collagen in the aorta wall” value with collagen I [1] is 54%. The “decrease of VFTC as compared to untreated hypertensive rats” value in test [2] came to 41%. This sequence came in with a volume fraction of total collagen (VFTC) in test [2] (untreated GB 6.5±1) of 3.8%. In addition, in the test with collagen I [3], the “prevention of the increase of collagen in the aortic wall” value worked out at 60%. Also, in test [4] (setting [7]), the “reduction in cell area as compared to the group infused with angiotensin II alone” value came to 20% and the “reduction in cell perimeter as compared to the group infused with angiotensin II alone” value came to 11%. In test [4] (left ventricle, two weeks), this sequence yielded a cardiomyocyte cell area of 227±2 μm^2 and a cardiomyocyte perimeter of 59.1±0.3 μm. For the same sequence, in test [5], the “decrease of cardiomyocyte area as compared to hypertensive rats” value came to 16% and the “decrease of cardiomyocyte perimeter as compared to hypertensive rats” value is reported as 22%. The “decrease of ED-1 levels” value in the test with ED-1 is 82%. For the same sequence, the “decrease of TGFβ-1 levels” value with TGFβ-1 turned out to be 47%. Moreover, in test [6], the “ratio of tunica media area (TMA) to LA” value is given as “significantly prevented the increase” and the “thickness of the tunica media (TMT)” value is listed as “significantly prevented the increase”.
